Assay [1] concerns MKN45 cell line (cell line expressing active RON). In words: Cell growth inhibition MTS assay on MKN45. In kind it is cell-based. To be noted: Homo sapiens, MKN-45, 48 hours, read-out: Growth inhibitory capacity on MKN45 cells, IC50. Here is the method: MTS assay was performed to identify whether the compound according to the present invention has a cancer cell proliferation inhibitory effect through inhibition of extracellular signal-regulated kinase activity.
The following assay was performed on MKN45 cell line (cell line expressing active RON), a human gastric cancer cell line. The MKN45 cell line was dispensed at a concentration of 5,000 cells/well in a 96-well plate containing RPMI-1640 medium (Gibco, Invitrogen) containing 10% FBS, and then the plate was incubated for 24 hours at a condition of 5% CO2 and 37° C. Then, the respective wells were subjected to treatment with the compounds prepared in the examples, each of which was sequentially diluted from its high concentration of 10 μM. For a solvent control, the respective wells were subjected to treatment with dimethyl sulfoxide (DMSO) at the same concentrations (% (v/v)) to those used for the treatment with the compounds. Then, the respective cells were incubated for 48 hours.
In order to identify degree of viability of the cells, a mixture of MTS and phenazine methosulfate (PMS) provided in CellTiter 96 AQuous Non-Radioactive Cell Proliferation Assay Kit (Promega) was added to each cultured cell medium. Additional incubation was performed at a condition of 37° C. for 2 hours and 30 minutes. Then, absorbance was measured at 490 nm. […] In the following, A represents <10 nM, B represents 10 to 50 nM, and C represents >50 nM.

A further assay concerns KM12C cell line tumor. In words: Efficacy in animal model transplanted with KM12C, 30 and 50 mpk (Experimental Example 11). Type of assay: in vivo, BALB/c nude mice. The following applies: once a day for 2 weeks. Here is the method: 5-Week-old female BALB/c nude mice were purchased and acclimatized for 1 week. Then, human-derived colon cancer cell line KM12C (1.5×10^6 cells/mice) was diluted in PBS, and injected subcutaneously (100 μl) into the right dorsal side of the mice. Comparative Examples 1 and Example 18 were orally administered when the tumor reached a size of about 100 mm^3. The drug was administered at 30 mpk and 50 mpk once a day for 2 weeks, and tumor size and body weight were measured twice a week. […] After completion of the drug administration, the experimental animals were euthanized, and then the tumors were extracted and weighed to perform comparative analysis.

The test system of assay [2] is KM12C (RONΔ160). In words: Cell death-inducing ability, trypan blue exclusion, KM12C. To be noted: 48 hours. Type of assay: cell-based, human. On the procedure:
(§1) The cell death-inducing ability of Example 18 and Comparative Example 1 was measured in KM12C with RON mutant (Δ160), a cetuximab-resistant cell line, and Colo320HSR cell line, a cell line not expressing RON. The two colon cancer cell lines were seeded, respectively, onto 60-mm plates at 2×10^5 cells. Then, after 24 hours, while performing medium exchange, the cells were subjected to treatment with the sample compounds at respective concentrations (1 μM, 5 μM) for 48 hours. After 48 hours, the cells and cell suspensions were collected (1,500 rpm, 3 minutes), and live cells and dead cells were quantitated (n=2) through trypan blue (15250-061, Gibco) exclusion assay.

Assay [3] has as its system KM12C (RONΔ160). In words: MTS assay KM12C (Experimental Example 6). Type of assay: cell-based. To be noted: Homo sapiens, 72 hours. On the procedure:
In MTS assay for Example 18 and Comparative Example 1, KM12C cell line was seeded at 1,000 cells per well into 96-well plates. After 24 hours, the cells were treated with various concentrations (0.000001 uM to 10 uM) of Example 18 and Comparative Example 1 in 100 ul of 10% FBS-MEM medium (Welgene) per well. Subsequently, the cells were incubated for 72 hours. Then, 20 μl of MTS solution (Promega) was added thereto, and incubation was performed for 2 hours. Then, the absorbance was measured at 490 nm. The IC50 values for Example 18 and Comparative Example 1 were calculated using GraphPad Prism™ 5 to investigate cytotoxicity.

A further assay relates to Colo320HSR (RON-). In words: Cell death-inducing ability, trypan blue exclusion, Colo320HSR. In kind it is cell-based. The following applies: 48 hours. Here is the method: as §1
Assay [4] deals with colon cancer patient tissue (active RON/RON mutant #1: Δ160). In words: Efficacy in animal model transplanted with colon cancer patient tissue, 30 mpk. In kind it is in vivo. To be noted: 30 mpk for 4 weeks. On the procedure:
Example 18 and Comparative Example 1 were administered to an animal model transplanted with the same patient tissue (active RON/RON mutant #1: Δ160) cells as in the animal model transplanted with colon cancer patient tissue tumor cells at 30 mpk for 4 weeks. […] The lower pictures of FIG. 21 show tumors extracted from representative individuals of the respective groups.

The next assay deals with RON enzyme (Homo sapiens, UniProt Q04912). In words: RON activity inhibition assay (ADP-Glo). To be noted: 50 uM ATP, G4Y1 peptide substrate. In kind it is biochemical. Here is the method: Enzymatic reaction was allowed to proceed using 2 ng/uL of 250 uM G4Y1 peptide, which serves as a substrate for RON enzyme, and 50 uM ATP in assay buffer (40 mM Tris-HCl, pH 7.5, 20 mM MgCl2, 0.1 mg/mL bovine serum albumin, 50 uM DTT). The resultant was subjected to treatment with the compounds prepared in the examples and the comparative examples at various concentrations, and reaction was allowed to proceed at room temperature for 1 hour. Then, ADP-Glo™ Reagent and Kinase Detection Reagent were sequentially added thereto, and reaction was allowed to proceed at room temperature for 40 minutes and 30 minutes, respectively.
Subsequently, luminescence was measured using Wallaac Victor 2TM (PerkinElmer Life Sciences, 1420-042). Data were analyzed with the measured RLU values to verify activity of the RON inhibitors. The RLU value of a sample which was not treated with the compound was set as a 100% control, and the activity of the RON inhibitor was evaluated as a percentage of residual activity of the RON enzyme in the sample that was treated with the compound at the concentration to be tested.

The structures appear in SMILES notation. Structures can show the parent of a compound that is named as a salt.

Chain of RON enzyme (Q04912 25-1400): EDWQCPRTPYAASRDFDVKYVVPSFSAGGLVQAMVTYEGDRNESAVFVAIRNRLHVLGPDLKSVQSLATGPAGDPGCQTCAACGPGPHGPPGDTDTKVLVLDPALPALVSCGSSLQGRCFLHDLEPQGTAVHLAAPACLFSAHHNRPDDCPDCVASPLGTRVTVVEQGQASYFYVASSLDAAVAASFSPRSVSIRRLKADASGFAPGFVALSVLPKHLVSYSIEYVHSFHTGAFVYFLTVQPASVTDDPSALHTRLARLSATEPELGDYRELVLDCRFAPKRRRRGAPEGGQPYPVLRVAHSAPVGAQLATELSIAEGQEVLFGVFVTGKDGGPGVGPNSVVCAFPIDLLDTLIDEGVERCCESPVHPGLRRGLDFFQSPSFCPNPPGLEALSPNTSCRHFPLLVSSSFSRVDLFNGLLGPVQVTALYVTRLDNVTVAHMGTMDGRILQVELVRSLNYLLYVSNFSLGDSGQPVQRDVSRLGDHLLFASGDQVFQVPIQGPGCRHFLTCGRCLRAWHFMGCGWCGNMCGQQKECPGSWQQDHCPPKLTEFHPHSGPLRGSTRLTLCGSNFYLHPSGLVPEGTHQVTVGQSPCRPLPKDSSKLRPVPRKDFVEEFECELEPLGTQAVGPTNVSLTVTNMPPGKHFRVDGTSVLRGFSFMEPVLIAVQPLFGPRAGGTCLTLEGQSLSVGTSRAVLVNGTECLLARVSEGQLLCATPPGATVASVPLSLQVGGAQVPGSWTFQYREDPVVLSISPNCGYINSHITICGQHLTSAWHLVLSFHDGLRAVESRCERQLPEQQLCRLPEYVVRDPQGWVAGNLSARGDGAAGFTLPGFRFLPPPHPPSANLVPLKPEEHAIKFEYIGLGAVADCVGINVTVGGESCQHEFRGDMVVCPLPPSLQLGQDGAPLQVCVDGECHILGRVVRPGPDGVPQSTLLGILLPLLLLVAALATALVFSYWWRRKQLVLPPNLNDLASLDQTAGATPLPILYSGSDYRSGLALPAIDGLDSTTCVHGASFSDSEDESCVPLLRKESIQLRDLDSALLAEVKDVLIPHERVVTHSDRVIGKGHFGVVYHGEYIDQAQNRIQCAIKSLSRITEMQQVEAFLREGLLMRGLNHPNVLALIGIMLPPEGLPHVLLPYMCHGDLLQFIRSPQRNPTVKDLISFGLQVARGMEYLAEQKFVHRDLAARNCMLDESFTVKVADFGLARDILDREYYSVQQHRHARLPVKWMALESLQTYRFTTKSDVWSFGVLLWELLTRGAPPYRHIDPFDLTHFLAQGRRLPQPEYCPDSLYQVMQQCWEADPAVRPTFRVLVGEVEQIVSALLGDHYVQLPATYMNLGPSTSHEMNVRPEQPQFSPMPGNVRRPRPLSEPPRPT

Turning to `CCOc1ccn(Cc2ccc(F)cc2)c(=O)c1C(=O)Nc1ccc(Oc2ccnc3cc(-c4cn(CC)cn4)sc23)c(F)c1` [Example 8, 4-ethoxy-N-(4-(2-(1-ethyl-1H-imidazol-4-yl)thieno[3,2-b]pyridin-7-yloxy)-3-fluorophenyl)-1-(4-fluorobenzyl)-2-oxo-1,2-dihydropyridine-3-carboxamide], in assay [1], the IC50 was above 50 nM. The same measure, in the same setting: in the case of `CCOc1ccn(-c2ccc(F)cc2)c(=O)c1C(=O)Nc1ccc(Oc2ccnc3cc(-c4nccs4)sc23)c(F)c1` [Example 7, 4-ethoxy-N-(3-fluoro-4-(2-(thiazol-2-yl)thieno[3,2-b]pyridin-7-yloxy)phenyl)-1-(4-fluorophenyl)-2-oxo-1,2-dihydropyridine-3-carboxamide] it was above 50 nM; in that of `CCOc1ccn(-c2ccc(F)cc2)c(=O)c1C(=O)Nc1ccc(Oc2ccnc3cc(CN4CCNCC4)sc23)c(F)c1` [Example 10, 4-ethoxy-N-(3-fluoro-4-(2-(piperazin-1-ylmethyl)thieno[3,2-b]pyridin-7-yloxy)phenyl)-1-(4-fluorophenyl)-2-oxo-1,2-dihydropyridine-3-carboxamide hydrochloride], above 50 nM. In the case of `CCOc1ccn(-c2ccc(F)cc2)c(=O)c1C(=O)Nc1ccc(Oc2ccnc(N)c2Cl)c(F)c1` [Comparative Example 1, N-{4-[(2-amino-3-chloro-4-pyridinyl)oxy]-3-fluorophenyl}-4-ethoxy-1-(4-fluorophenyl)-2-oxo-1,2-dihydro-3-pyridinecarboxamide, reference compound], the “TGI (%)” value with KM12C cell line tumor (30 mg/kg oral) was 82.4%; with KM12C cell line tumor (50 mg/kg oral), 83.7%. Also, the “tumor growth inhibition efficacy” value is “very high tumor growth inhibition efficacy” in the assay with KM12C cell line tumor (30 mpk and 50 mpk oral); “about 18%” in assay [4]. Also, the entries for the “Cell death, KM12C (RONΔ160)” value in the assay on KM12C (RONΔ160) [2] (1 μM) and in the assay with KM12C (RONΔ160) [2] (5 μM) were 11.7 and 21.1, respectively. The IC50 in the assay with KM12C (RONΔ160) [3] stood at 358 nM. Further, the results for the “Cell death, Colo320HSR (RON-)” value with Colo320HSR (RON-) (1 μM) and in the assay on Colo320HSR (RON-) (5 μM) were 5.9 and 8.2, respectively. As for `CCOc1ccn(-c2ccc(F)cc2)c(=O)c1C(=O)Nc1ccc(Oc2ccnc3cc(-c4nccn4C)sc23)c(F)c1` [Example 3, 4-ethoxy-N-(3-fluoro-4-(2-(1-methyl-1H-imidazol-2-yl)thieno[3,2-b]pyridine-7-yloxy)phenyl)-1-(4-fluorophenyl)-2-oxo-1,2-dihydropyridine-3-carboxamide], the IC50 in assay [1] was in the range of 10 to 50 nM. Consider `CCOc1ccn(-c2ccc(F)cc2)c(=O)c1C(=O)Nc1ccc(Oc2ccnc3cc(-c4cccnc4)sc23)c(F)c1` [Example 6, 4-ethoxy-N-(3-fluoro-4-(2-(pyridin-3-yl)thieno[3,2-b]pyridin-7-yloxy)phenyl)-1-(4-fluorophenyl)-2-oxo-1,2-dihydropyridine-3-carboxamide], for which the IC50 in assay [1] lay in the range of 10 to 50 nM. As for `CCOc1ccn(-c2ccc(F)cc2)c(=O)c1C(=O)Nc1ccc(Oc2ccnc3cc(-c4cn(C)cn4)sc23)c(F)c1` [Example 1, 4-ethoxy-N-(3-fluoro-4-(2-(1-methyl-1H-imidazol-4-yl)thieno[3,2-b]pyridine-7-yloxy)phenyl)-1-(4-fluorophenyl)-2-oxo-1,2-dihydropyridine-3-carboxamide], the IC50 was below 10 nM in assay [1] and 11.1 nM on RON enzyme. `COCn1cnc(-c2cc3nccc(Oc4ccc(NC(=O)c5c(OC)ccn(-c6ccccc6)c5=O)cc4F)c3s2)c1` [Example 9, 4-methoxy-N-(3-fluoro-4-(2-(1-(methoxymethyl)-1H-imidazol-4-yl)thieno[3,2-b]pyridin-7-yloxy)phenyl)-1-phenyl-2-oxo-1,2-dihydropyridine-3-carboxamide]: the IC50 in assay [1] lay within 10 to 50 nM. As to `CCOc1ccn(-c2ccc(F)cc2)c(=O)c1C(=O)Nc1ccc(Oc2ccnc3cc(-c4cnn(C)c4)sc23)c(F)c1` [Example 4, 4-ethoxy-N-(3-fluoro-4-(2-(1-methyl-1H-pyrazol-4-yl)thieno[3,2-b]pyridine-7-yloxy)phenyl)-1-(4-fluorophenyl)-2-oxo-1,2-dihydropyridine-3-carboxamide], in assay [1], the IC50 fell in the range of 10 to 50 nM. Consider `CCOc1ccn(-c2ccc(F)cc2)c(=O)c1C(=O)Nc1ccc(Oc2ccnc3cc(-c4ccccn4)sc23)c(F)c1` [Example 5, 4-ethoxy-N-(3-fluoro-4-(2-(pyridin-2-yl)thieno[3,2-b]pyridin-7-yloxy)phenyl)-1-(4-fluorophenyl)-2-oxo-1,2-dihydropyridine-3-carboxamide], for which the IC50 in assay [1] was 10 to 50 nM; against RON enzyme, 8.8 nM. Regarding `CCOc1ccn(C)c(=O)c1C(=O)Nc1ccc(Oc2ccnc3cc(-c4cn(C)cn4)sc23)c(F)c1` [Example 2, 4-ethoxy-N-(3-fluoro-4-(2-(1-methyl-1H-imidazol-4-yl)thieno[3,2-b]pyridine-7-yloxy)phenyl)-1-methyl-2-oxo-1,2-dihydropyridine-3-carboxamide], in assay [1], the IC50 was above 50 nM.

Turning to `CCOc1ccn(-c2ccc(F)cc2)c(=O)c1C(=O)Nc1ccc(Oc2ccnc3cc(CN4CCN(C)CC4)sc23)c(F)c1` [Example 11, 4-ethoxy-N-(3-fluoro-4-(2-((4-methylpiperazin-1-yl)methyl)thieno[3,2-b]pyridine-7-yloxy)phenyl)-1-(4-fluorophenyl)-2-oxo-1,2-dihydropyridine-3-carboxamide], the IC50 in assay [1] is above 50 nM.

Values taken from US20230172914A1, “BIOMARKER-BASED THERAPEUTIC COMPOSITION” (WELLMARKER BIO CO., LTD., priority 2019, published 2023).
